Assay results reported in patent publication US11000033B2, “Ketone or oxime compound, and herbicide” (NISSAN CHEMICAL CORPORATION, priority 2014, dated 2021).

What was measured:
Type in all cases: in vivo
Avena fatua [1] = assay: Test Example 5: herbicidal effect by foliage application, plastic box (symbol I); conditions: 320 g/ha, 3 weeks after application
Method in brief: (§1)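 Sowing in sterilized diluvial soil, 14 days' greenhouse growth at 25° C. to 30° C., then uniform small-sprayer foliar application of aqueous emulsion dilution; plants scored three weeks afterwards.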

Lolium multiflorum Lam. [2] = assay: Test Example 4: herbicidal effect by soil treatment (symbol K); conditions: application herbicide amount 320 g/ha
Method in brief: (§2)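 Seeds were sown in sterilized diluvial soil, covered with about 1.5 cm of soil, and the soil surface was sprayed with a water-diluted emulsion of the compound at a predetermined rate. Plants grew in a greenhouse at 25° C. to 30° C.; effects were scored visually 3 weeks after application.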

Apera spica-venti = assay: Test Example 5: herbicidal effect by foliage application, plastic box (symbol L); conditions: 320 g/ha, 3 weeks after application
Method in brief: as §1

Chenopodium album = assay: Test Example 5: herbicidal effect by foliage application, plastic box (symbol O); conditions: 320 g/ha, 3 weeks after application
Method in brief: as §1

rapeseed [3] = assay: Test Example 4: effect on crop by soil treatment (symbol g); conditions: application herbicide amount 320 g/ha
Method in brief: (§3)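 Steps: fill box with sterilized diluvial soil; sow seed spot-like; cover with ~1.5 cm soil; grow in greenhouse (25° C. to 30° C.).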

[4] = tested on: directly sowed rice plant; assay: Test Example 3: effect on crop by foliage application, Wagner pot (symbol b); conditions: application herbicide amount 320 g/ha
Method in brief: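 Steps: fill a 1/10000-are Wagner pot with alluvial soil; add water and mix to submerge at 0.1–0.5 cm depth; sow rice plus Echinochloa crus-galli var. crus-galli, Leptochloa chinensis and Cyperus difformis; grow in a 25–30 °C greenhouse.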

wheat = assay: Test Example 5: effect on crop by foliage application, plastic box (symbol e); conditions: 320 g/ha, 3 weeks after application
Method in brief: (§4)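 Foliage-application test plants come from spot sowing in sterilized diluvial soil under a soil layer of about 1.5 cm, grown at 25° C. to 30° C. in a greenhouse.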

Lolium multiflorum Lam. [5] = assay: Test Example 5: herbicidal effect by foliage application, plastic box (symbol K); conditions: 320 g/ha, 3 weeks after application
Method in brief: as §1

Amaranthus retroflexus = assay: Test Example 5: herbicidal effect by foliage application, plastic box (symbol N); conditions: 320 g/ha, 3 weeks after application
Method in brief: as §1

Digitaria ciliaris [6] = assay: Test Example 4: herbicidal effect by soil treatment (symbol F); conditions: application herbicide amount 320 g/ha
Method in brief: as §2

rapeseed [7] = assay: Test Example 5: effect on crop by foliage application, plastic box (symbol g); conditions: 320 g/ha, 3 weeks after application
Method in brief: as §4

Galium spurium = assay: Test Example 5: herbicidal effect by foliage application, plastic box (symbol Q); conditions: 320 g/ha, 3 weeks after application
Method in brief: as §1

Digitaria ciliaris [8] = assay: Test Example 5: herbicidal effect by foliage application, plastic box (symbol F); conditions: 320 g/ha, 3 weeks after application
Method in brief: as §1

Monochoria vaginalis = assay: Test Example 2: herbicidal activity, application during weed generation in submerged conditions (symbol C); conditions: Table 23; application herbicide amount 320 g/ha; grade 0-5 by criteria of Test Example 1
Method in brief: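 Compound was applied as a water-diluted emulsion into the standing water of flooded pots (4 cm) once co-sown weeds reached one to two leaves. Greenhouse temperature was 25° C. to 30° C., soil was alluvial, and each species was rated visually after 3 weeks.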

Veronica persica = assay: Test Example 5: herbicidal effect by foliage application, plastic box (symbol R); conditions: 320 g/ha, 3 weeks after application
Method in brief: as §1

Alopecurus myosuroides = assay: Test Example 4: herbicidal effect by soil treatment (symbol J); conditions: application herbicide amount 320 g/ha
Method in brief: as §2

Stellaria media = assay: Test Example 5: herbicidal effect by foliage application, plastic box (symbol P); conditions: 320 g/ha, 3 weeks after application
Method in brief: as §1

beet = assay: Test Example 4: effect on crop by soil treatment (symbol f); conditions: application herbicide amount 320 g/ha
Method in brief: as §3

rice = assay: Test Example 4: effect on crop by soil treatment (symbol b); conditions: application herbicide amount 320 g/ha
Method in brief: as §3

Avena fatua [9] = assay: Test Example 4: herbicidal effect by soil treatment (symbol I); conditions: application herbicide amount 320 g/ha
Method in brief: as §2

Abutilon theophrasti = assay: Test Example 5: herbicidal effect by foliage application, plastic box (symbol M); conditions: 320 g/ha, 3 weeks after application
Method in brief: as §1

[10] = tested on: Echinochloa crus-galli var. crus-galli; assay: Test Example 4: herbicidal effect by soil treatment (symbol H); conditions: application herbicide amount 320 g/ha
Method in brief: as §2

SMILES | I: Avena fatua, herbicidal effect (criteria of Test Example 1) (Avena fatua [1]) | Herbicidal effect grade, K: Lolium multiflorum Lam. (Lolium multiflorum Lam. [2]) | L: Apera spica-venti, herbicidal effect (criteria of Test Example 1) (Apera spica-venti) | O: Chenopodium album, herbicidal effect (criteria of Test Example 1) (Chenopodium album) | Effect on crop grade, g: rapeseed (rapeseed [3]) | effect on crop b (directly sowed rice plant), grade 0-5 [4] | e: wheat, effect on crop (criteria of Test Example 1) (wheat) | K: Lolium multiflorum Lam., herbicidal effect (criteria of Test Example 1) (Lolium multiflorum Lam. [5]) | N: Amaranthus retroflexus, herbicidal effect (criteria of Test Example 1) (Amaranthus retroflexus) | Herbicidal effect grade, F: Digitaria ciliaris (Digitaria ciliaris [6]) | g: rapeseed, effect on crop (criteria of Test Example 1) (rapeseed [7]) | Q: Galium spurium, herbicidal effect (criteria of Test Example 1) (Galium spurium) | F: Digitaria ciliaris, herbicidal effect (criteria of Test Example 1) (Digitaria ciliaris [8]) | Herbicidal effect grade, C: Monochoria vaginalis (Monochoria vaginalis) | R: Veronica persica, herbicidal effect (criteria of Test Example 1) (Veronica persica) | Herbicidal effect grade, J: Alopecurus myosuroides (Alopecurus myosuroides) | P: Stellaria media, herbicidal effect (criteria of Test Example 1) (Stellaria media) | Effect on crop grade, f: beet (beet) | Effect on crop grade, b: directly sowed rice plant (rice) | Herbicidal effect grade, I: Avena fatua (Avena fatua [9]) | further results
CON=C(C)CC1CC(OC(=O)N(C)C)=C(c2c(C)cc(C)cc2OC)C1=O (stereo not drawn) [6-109] | 5 (Herbicidal ratio of 90% or more (almost completely withered)) | 5 (Herbicidal ratio of 90% or more (almost completely withered)) | 5 (Herbicidal ratio of 90% or more (almost completely withered)) | 0 (Herbicidal ratio of 5% or lower (almost no effect)) | 0 (Herbicidal ratio of 5% or lower (almost no effect)) | 5 (Herbicidal ratio of 90% or more (almost completely withered)) | 4 (Herbicidal ratio of 70% or higher and lower than 90%) | 5 (Herbicidal ratio of 90% or more (almost completely withered)) | 4 (Herbicidal ratio of 70% or higher and lower than 90%) | 5 (Herbicidal ratio of 90% or more (almost completely withered)) | 4 (Herbicidal ratio of 70% or higher and lower than 90%) | 0 (Herbicidal ratio of 5% or lower (almost no effect)) | 5 (Herbicidal ratio of 90% or more (almost completely withered)) | 2 (Herbicidal ratio of 20% or higher and lower than 40%) | 1 (Herbicidal ratio of 5% or higher and lower than 20%) | 5 (Herbicidal ratio of 90% or more (almost completely withered)) | 0 (Herbicidal ratio of 5% or lower (almost no effect)) | 0 (Herbicidal ratio of 5% or lower (almost no effect)) | 1 (Herbicidal ratio of 5% or higher and lower than 20%) | 0 (Herbicidal ratio of 5% or lower (almost no effect)) | M: Abutilon theophrasti, herbicidal effect (criteria of Test Example 1) (Abutilon theophrasti): 4 (Herbicidal ratio of 70% or higher and lower than 90%); Herbicidal effect grade, H: Echinochloa crus-galli var. crus-galli [10]: 5 (Herbicidal ratio of 90% or more (almost completely withered))
CON=C(C)CC1CC(OC(=O)COc2ccccc2)=C(c2c(C)cc(-c3ccc(Cl)cc3Cl)cc2C)C1=O (stereo not drawn) [6-092] | 5 (Herbicidal ratio of 90% or more (almost completely withered)) | 5 (Herbicidal ratio of 90% or more (almost completely withered)) | 3 (Herbicidal ratio of 40% or higher and lower than 70%) | 5 (Herbicidal ratio of 90% or more (almost completely withered)) | 0 (Herbicidal ratio of 5% or lower (almost no effect)) | 5 (Herbicidal ratio of 90% or more (almost completely withered)) | 0 (Herbicidal ratio of 5% or lower (almost no effect)) | 5 (Herbicidal ratio of 90% or more (almost completely withered)) | 0 (Herbicidal ratio of 5% or lower (almost no effect)) | 5 (Herbicidal ratio of 90% or more (almost completely withered)) | 4 (Herbicidal ratio of 70% or higher and lower than 90%) | 4 (Herbicidal ratio of 70% or higher and lower than 90%) | 5 (Herbicidal ratio of 90% or more (almost completely withered)) | 0 (Herbicidal ratio of 5% or lower (almost no effect)) | 4 (Herbicidal ratio of 70% or higher and lower than 90%) | 3 (Herbicidal ratio of 40% or higher and lower than 70%) | 3 (Herbicidal ratio of 40% or higher and lower than 70%) | 0 (Herbicidal ratio of 5% or lower (almost no effect)) | 4 (Herbicidal ratio of 70% or higher and lower than 90%) | 3 (Herbicidal ratio of 40% or higher and lower than 70%) | M: Abutilon theophrasti, herbicidal effect (criteria of Test Example 1) (Abutilon theophrasti): 0 (Herbicidal ratio of 5% or lower (almost no effect)); Herbicidal effect grade, H: Echinochloa crus-galli var. crus-galli [10]: 3 (Herbicidal ratio of 40% or higher and lower than 70%)
CON=C(C)CC1CC(O)=C(c2c(C)cccc2C)C1=O (stereo not drawn) [6-112] | 5 (Herbicidal ratio of 90% or more (almost completely withered)) | 5 (Herbicidal ratio of 90% or more (almost completely withered)) | 5 (Herbicidal ratio of 90% or more (almost completely withered)) | 0 (Herbicidal ratio of 5% or lower (almost no effect)) | 0 (Herbicidal ratio of 5% or lower (almost no effect)) | 5 (Herbicidal ratio of 90% or more (almost completely withered)) | 4 (Herbicidal ratio of 70% or higher and lower than 90%) | 5 (Herbicidal ratio of 90% or more (almost completely withered)) | 1 (Herbicidal ratio of 5% or higher and lower than 20%) | 5 (Herbicidal ratio of 90% or more (almost completely withered)) | 4 (Herbicidal ratio of 70% or higher and lower than 90%) | 0 (Herbicidal ratio of 5% or lower (almost no effect)) | 5 (Herbicidal ratio of 90% or more (almost completely withered)) | 0 (Herbicidal ratio of 5% or lower (almost no effect)) | 1 (Herbicidal ratio of 5% or higher and lower than 20%) | 5 (Herbicidal ratio of 90% or more (almost completely withered)) | 1 (Herbicidal ratio of 5% or higher and lower than 20%) | 0 (Herbicidal ratio of 5% or lower (almost no effect)) | 5 (Herbicidal ratio of 90% or more (almost completely withered)) | 1 (Herbicidal ratio of 5% or higher and lower than 20%) | M: Abutilon theophrasti, herbicidal effect (criteria of Test Example 1) (Abutilon theophrasti): 4 (Herbicidal ratio of 70% or higher and lower than 90%); Herbicidal effect grade, H: Echinochloa crus-galli var. crus-galli [10]: 5 (Herbicidal ratio of 90% or more (almost completely withered))
